# Results taken from patent US20130281512A1, “AGENTS FOR TREATING DISORDERS INVOLVING MODULATION OF RYANODINE RECEPTORS” (LES LABORATOIRES SERVIER, priority 2012, published 2013).
# pEC50: −log10 of the molar value.
# How the values were obtained:
# PKA-phosphorylated RyR2 = target: T1, PKA-phosphorylated RyR2 (Homo sapiens, UniProt Q92736); experiment: Calstabin2 rebinding assay: binding of calstabin2 to PKA-phosphorylated RyR2 (cardiac SR, immunoblot); settings: 100 nM compound; immunoblot with calstabin2 antibody
# T1 construct: Cardiac SR membranes were prepared as previously described; from tissue; host or cells: cardiac sarcoplasmic reticulum (heart muscle microsomes)
# Protocol: Cardiac SR membranes were prepared as previously described (Marx et al., 2000; Kaftan et al., Circ. Res., 1996, 78:990-97). Immunoblotting of microsomes (50 μg) was performed as described, with anti-calstabin antibody (1:1,000) (Jayaraman et al., J. Biol. Chem., 1992, 267:9474-77) for 1 hr at room temperature (Reiken et al., Circulation, 107:2459-66, 2003). After incubation with HRP-labeled anti-rabbit IgG (1:5,000 dilution; Transduction Laboratories, Lexington, Ky.), the blots were developed using ECL (Amersham Pharmacia, Piscataway, N.J.) and detected on x-ray film, or exposed to secondary antibodies labeled with infrared Dye and visualized on equipment from Li-Cor Biosciences (model Odyssey). Unless otherwise stated, compounds were tested at a concentration of 100 nM. A representative calstabin2 binding assay is presented below.
# A. PKA phosphorylation of cardiac sarcoplasmic reticulum (CSR)
# B. Reaction mixture was set up in 1.5 ml microfuge tube. 200 μg of cardiac SR were added to a reaction mix of kinase buffer, PKA and ATP to a final volume of 100 (Reaction mix below). ATP was added last to initiate the reaction.
# 20 μl Sample (cardiac SR, 2 or 10 μg/μl) 10 μl=10× Kinase buffer (80 mM MgCl2, 100 mM EGTA, 500 mM Tris/PIPES), pH=7.0
# 20 μl PKA (2units/ul) (Sigma # P2645)
# 40 μl=distilled H2O • 1. The tubes were incubated at 30° C. for 30 minutes. • 2. The reaction mix was then transferred to 0.5 ml thick walled glass tubes. • 3. The glass tubes containing the reaction mix were centrifuged for 10 min at 50,000×g in Sorvall Centrifuge RCM120EX using S120AT3 rotor. Centrifugation at 50,000×g for 10 min is sufficient to isolate the microsomes. • 4. The resulting pellet was washed 4 times with binding buffer (10 mM Imidazol 300 mM Sucrose, pH=7.4). Each time 100111 of 1× binding buffer was added to the tube to wash the pellet. The pellet was resuspended by flushing up and down using the pipette tip. After the last spin 501.11 of binding buffer was added and the pellets from all tubes were pooled. The reaction was stored at −20° C. • 5. Phosphorylation was confirmed by separating approximately 10 μg of CSR by 6% Polyacylamide gel electrophoresis (PAGE) and analyzing the immunoblots for both total RyR (5029 Ab, 1:3000 dilution or Monoclonal Ab from Affinity Bioreagents, Cat # MA3-916, 1:2000 dilution) and PKA phosphorylated RyR2 (P2809 Ab, 1:10000 dilution). • 6. Aliquots can be stored at −80 C.
# C. Calstabin Rebinding Assay
# • 1. PKA-phosphorylated CSR (approximately 20 μg) was incubated with 250 nM Calstabin 2 in 100111 binding buffer (as described above) with or without compounds. • 2. […] Calstabin2 binding was detected with anti-FKBP (Jayaraman et al., J. Biol. Chem. 1992; 267:9474-77, 1:2000) primary antibody and appropriate secondary antibody.
# RyR2 = settings: WT and RyR2-S2808D+/+ mice; cited from earlier work
# RyR1 [1] = target: T2, RyR1 (Mus musculus, UniProt E9PZQ0); settings: aged mice; cited from earlier work
# T2 construct: RyR1 from aged (24 months) mice is oxidized, cysteine-nitrosylated, and depleted of calstabin1; host or cells: mice (in vivo)
# T2 sequence (E9PZQ0 whole entry): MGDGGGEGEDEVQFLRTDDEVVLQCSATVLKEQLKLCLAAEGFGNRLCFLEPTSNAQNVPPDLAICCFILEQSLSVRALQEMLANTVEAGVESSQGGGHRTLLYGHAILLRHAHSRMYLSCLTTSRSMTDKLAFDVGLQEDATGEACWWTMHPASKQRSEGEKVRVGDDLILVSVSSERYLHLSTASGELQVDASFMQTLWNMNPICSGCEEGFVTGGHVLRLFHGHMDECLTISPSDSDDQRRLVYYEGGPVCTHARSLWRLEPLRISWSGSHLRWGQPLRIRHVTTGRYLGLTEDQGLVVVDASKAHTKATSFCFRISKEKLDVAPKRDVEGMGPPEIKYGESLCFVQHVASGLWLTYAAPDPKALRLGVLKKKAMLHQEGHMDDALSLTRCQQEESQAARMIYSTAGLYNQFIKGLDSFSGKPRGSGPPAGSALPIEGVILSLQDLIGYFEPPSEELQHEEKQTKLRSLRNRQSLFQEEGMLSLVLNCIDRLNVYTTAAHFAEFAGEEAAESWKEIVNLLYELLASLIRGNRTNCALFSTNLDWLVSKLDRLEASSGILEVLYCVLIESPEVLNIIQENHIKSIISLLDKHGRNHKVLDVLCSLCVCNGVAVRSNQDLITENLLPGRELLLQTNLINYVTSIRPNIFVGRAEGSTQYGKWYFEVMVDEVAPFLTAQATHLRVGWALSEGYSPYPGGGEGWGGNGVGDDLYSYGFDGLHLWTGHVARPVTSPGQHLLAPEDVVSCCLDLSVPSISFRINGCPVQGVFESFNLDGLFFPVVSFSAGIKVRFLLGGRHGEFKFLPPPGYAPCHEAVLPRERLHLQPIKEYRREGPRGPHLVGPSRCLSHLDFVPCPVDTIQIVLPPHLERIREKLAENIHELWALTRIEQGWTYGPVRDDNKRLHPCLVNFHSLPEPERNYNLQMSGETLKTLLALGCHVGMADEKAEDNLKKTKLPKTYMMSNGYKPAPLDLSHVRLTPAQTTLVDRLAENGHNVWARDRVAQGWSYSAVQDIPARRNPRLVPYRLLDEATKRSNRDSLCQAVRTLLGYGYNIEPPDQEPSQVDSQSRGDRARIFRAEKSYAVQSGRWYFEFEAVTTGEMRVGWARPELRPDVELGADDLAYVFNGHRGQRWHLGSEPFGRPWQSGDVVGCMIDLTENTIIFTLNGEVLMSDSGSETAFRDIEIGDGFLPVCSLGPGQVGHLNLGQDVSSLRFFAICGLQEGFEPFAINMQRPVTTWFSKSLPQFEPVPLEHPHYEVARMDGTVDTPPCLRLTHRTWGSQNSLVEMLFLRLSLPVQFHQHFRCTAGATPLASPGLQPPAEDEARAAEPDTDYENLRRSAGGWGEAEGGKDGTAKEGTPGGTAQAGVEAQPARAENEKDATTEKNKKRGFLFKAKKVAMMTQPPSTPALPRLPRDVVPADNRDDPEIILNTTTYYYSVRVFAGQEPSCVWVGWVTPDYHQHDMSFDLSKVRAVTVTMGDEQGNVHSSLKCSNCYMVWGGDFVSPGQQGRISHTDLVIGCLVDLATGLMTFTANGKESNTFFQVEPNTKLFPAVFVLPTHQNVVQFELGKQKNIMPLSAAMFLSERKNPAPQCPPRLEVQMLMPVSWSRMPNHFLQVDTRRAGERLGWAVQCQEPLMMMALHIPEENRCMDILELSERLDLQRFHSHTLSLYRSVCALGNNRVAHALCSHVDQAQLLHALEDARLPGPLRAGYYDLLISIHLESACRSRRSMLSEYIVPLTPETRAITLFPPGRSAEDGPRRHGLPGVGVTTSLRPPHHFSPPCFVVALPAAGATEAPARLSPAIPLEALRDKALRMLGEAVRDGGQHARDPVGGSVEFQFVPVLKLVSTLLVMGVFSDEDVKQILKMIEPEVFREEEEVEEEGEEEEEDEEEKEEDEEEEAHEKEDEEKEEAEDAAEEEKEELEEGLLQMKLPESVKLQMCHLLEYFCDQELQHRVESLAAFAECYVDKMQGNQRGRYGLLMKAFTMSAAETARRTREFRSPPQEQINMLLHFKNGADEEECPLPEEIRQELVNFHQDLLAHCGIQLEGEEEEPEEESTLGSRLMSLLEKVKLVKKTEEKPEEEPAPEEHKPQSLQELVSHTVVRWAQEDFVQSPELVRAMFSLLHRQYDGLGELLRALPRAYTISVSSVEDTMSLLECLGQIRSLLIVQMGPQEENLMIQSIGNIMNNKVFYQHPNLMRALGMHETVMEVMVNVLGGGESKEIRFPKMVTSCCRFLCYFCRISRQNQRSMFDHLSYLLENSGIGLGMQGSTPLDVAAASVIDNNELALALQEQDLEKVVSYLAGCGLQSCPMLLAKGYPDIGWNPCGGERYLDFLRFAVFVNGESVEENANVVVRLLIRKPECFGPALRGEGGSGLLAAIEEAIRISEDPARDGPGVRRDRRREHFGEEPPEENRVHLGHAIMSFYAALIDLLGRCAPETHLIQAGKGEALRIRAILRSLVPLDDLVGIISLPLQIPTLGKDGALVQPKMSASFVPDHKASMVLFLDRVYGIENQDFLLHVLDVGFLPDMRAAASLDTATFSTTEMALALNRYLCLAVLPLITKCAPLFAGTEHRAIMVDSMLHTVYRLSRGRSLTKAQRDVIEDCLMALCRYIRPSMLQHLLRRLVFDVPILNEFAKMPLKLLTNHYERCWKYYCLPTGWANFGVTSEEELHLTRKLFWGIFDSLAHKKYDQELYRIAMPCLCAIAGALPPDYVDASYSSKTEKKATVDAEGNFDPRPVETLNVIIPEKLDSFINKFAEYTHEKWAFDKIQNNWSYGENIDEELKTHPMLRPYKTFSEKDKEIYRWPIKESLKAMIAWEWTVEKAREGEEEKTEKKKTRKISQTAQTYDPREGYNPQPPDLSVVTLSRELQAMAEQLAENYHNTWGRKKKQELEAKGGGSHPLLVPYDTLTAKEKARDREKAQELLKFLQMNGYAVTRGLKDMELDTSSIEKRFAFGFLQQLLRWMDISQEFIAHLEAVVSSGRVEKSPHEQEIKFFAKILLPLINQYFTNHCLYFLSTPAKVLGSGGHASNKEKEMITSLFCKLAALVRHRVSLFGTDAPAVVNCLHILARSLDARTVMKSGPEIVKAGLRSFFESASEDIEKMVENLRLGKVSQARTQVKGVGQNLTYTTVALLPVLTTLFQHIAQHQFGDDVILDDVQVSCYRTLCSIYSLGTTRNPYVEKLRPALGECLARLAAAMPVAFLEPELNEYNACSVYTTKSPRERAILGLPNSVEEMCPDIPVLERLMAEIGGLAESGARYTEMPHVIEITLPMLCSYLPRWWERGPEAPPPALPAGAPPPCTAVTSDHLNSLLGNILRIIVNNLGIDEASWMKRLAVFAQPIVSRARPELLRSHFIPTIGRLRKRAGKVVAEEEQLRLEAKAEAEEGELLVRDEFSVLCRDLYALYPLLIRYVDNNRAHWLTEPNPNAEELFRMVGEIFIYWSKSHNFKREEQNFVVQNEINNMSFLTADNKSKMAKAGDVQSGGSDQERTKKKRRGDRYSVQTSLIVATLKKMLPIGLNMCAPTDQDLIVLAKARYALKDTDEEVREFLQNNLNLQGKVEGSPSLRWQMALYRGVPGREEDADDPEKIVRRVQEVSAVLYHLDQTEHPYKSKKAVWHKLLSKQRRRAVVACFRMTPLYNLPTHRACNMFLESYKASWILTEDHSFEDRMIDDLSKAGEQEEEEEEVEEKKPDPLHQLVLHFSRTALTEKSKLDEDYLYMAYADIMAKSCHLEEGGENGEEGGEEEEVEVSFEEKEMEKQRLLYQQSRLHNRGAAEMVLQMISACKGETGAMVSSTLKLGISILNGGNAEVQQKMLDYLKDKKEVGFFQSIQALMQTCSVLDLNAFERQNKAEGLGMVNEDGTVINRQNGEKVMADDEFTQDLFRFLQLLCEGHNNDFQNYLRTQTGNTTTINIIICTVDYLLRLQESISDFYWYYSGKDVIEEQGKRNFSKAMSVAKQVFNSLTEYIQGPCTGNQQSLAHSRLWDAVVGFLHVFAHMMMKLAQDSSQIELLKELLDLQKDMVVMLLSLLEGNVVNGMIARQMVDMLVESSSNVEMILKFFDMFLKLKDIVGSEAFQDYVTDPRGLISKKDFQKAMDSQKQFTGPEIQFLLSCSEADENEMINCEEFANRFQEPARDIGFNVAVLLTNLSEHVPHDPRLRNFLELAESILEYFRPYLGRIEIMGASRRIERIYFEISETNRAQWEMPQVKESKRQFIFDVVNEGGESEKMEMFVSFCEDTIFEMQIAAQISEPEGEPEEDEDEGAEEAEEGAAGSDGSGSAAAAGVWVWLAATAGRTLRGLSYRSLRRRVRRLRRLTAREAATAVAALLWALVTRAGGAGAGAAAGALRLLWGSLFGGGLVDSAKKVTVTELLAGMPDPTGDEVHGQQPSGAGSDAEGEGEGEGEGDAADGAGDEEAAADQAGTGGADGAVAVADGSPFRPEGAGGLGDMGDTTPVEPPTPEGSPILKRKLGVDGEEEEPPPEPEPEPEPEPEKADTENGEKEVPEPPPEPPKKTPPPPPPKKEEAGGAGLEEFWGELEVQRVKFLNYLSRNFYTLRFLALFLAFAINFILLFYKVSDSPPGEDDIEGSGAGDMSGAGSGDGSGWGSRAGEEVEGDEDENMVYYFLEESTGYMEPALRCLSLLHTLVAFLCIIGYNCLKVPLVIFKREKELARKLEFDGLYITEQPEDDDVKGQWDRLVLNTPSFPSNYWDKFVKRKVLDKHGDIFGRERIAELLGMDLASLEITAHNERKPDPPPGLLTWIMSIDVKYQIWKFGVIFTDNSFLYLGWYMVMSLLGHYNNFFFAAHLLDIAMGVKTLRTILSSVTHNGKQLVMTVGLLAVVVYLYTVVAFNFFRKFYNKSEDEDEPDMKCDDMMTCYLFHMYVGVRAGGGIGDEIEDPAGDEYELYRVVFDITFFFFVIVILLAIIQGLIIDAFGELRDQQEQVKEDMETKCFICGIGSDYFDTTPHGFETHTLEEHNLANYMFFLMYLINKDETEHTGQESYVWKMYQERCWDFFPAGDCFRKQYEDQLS
# T2 sequence (P26883 2-108 partner limits assumed): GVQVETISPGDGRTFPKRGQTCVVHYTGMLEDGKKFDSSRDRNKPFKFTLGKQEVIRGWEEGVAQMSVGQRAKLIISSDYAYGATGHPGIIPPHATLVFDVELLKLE
# RyR1 [2] = settings: mdx mouse model; cited from earlier work
# RyR = settings: cited from earlier work
# RyR1 [3] = target: T2, RyR1; settings: extreme exercise, mice; cited from earlier work
# PKA-phosphorylated RyR1 = PKA-phosphorylated RyR1 (Homo sapiens, UniProt P21817); experiment: biochemical
# Protocol: Immunoblotting of microsomes (50 μg) was performed as described, with anti-calstabin1 antibody (Zymed) (1:1,000). The blots were developed and quantified as described in Example 2.
# DMD exon skipping = settings: skeletal muscle of mdx mice; cited from earlier work
compound,measurement,setting,value
"COC(=O)c1cccc(CN2CCSc3ccc(OC)cc3C2)c1 [Compound 2, Methyl 3-((7-methoxy-2,3-dihydrobenzo[f][1,4]thiazepin-4(5H)-yl)methyl)benzoate]",binding of calstabin2 to PKA-phosphorylated RyR2,PKA-phosphorylated RyR2,"prevent dissociation of calstabin2 from PKA-phosphorylated RyR2, and/or enhance the (re)binding of calstabin2 to PKA-phosphorylated RyR2"
"COC(=O)c1ccc(CN2CCSc3ccc(OC)cc3C2)cc1 [Compound 3, Methyl 4-((7-methoxy-2,3-dihydrobenzo[f][1,4]thiazepin-4(5H)-yl)methyl)benzoate]",binding of calstabin2 to PKA-phosphorylated RyR2,PKA-phosphorylated RyR2,"prevent dissociation of calstabin2 from PKA-phosphorylated RyR2, and/or enhance the (re)binding of calstabin2 to PKA-phosphorylated RyR2"
COc1ccc2c(c1)CN(C)CCS2 [Compound 5107],HF progression,RyR2,reduced
same,RyR2-mediated diastolic SR Ca2+ leak,RyR2,inhibited
same,binding of calstabin1 to RyR1,RyR1 [1],stabilized
same,intracellular calcium leak,RyR1 [1],reduced
same,reactive oxygen species (ROS),RyR1 [1],decreased
same,"tetanic Ca2+ release, muscle-specific force, and exercise capacity",RyR1 [1],enhanced
same,indices of muscle function,RyR1 [2],improves
same,SR Ca2+ leak,RyR; after myocardial ischemia-reperfusion,inhibited
same,"ventricular arrhythmias, infarct size, and left ventricular remodeling",RyR; at 15 days after reperfusion,reduced
same,Ca2+ dependent neutral protease calpain activity and plasma creatinine kinase levels,RyR1 [3],reduced
same,depletion of calstabin1 from the RyR1 complex,RyR1 [3],prevented
"COc1ccc2c(c1)CN(Cc1cccc(C(=O)O)c1)CCS2 [Compound 4, 3-((7-Methoxy-2,3-dihydrobenzo[f][1,4]thiazepin-4(5H)-yl)methyl)benzoic acid]",pEC50,PKA-phosphorylated RyR1,~6.82
same,binding of calstabin1 to PKA phosphorylated RyR1,"PKA-phosphorylated RyR1; indicated concentrations, immunoblot with calstabin1 antibody",prevented the dissociation of calstabin1 from PKA phosphorylated RyR1 and/or enhanced the (re)binding of calstabin1 to PKA-phosphorylated RyR1 in a dose-dependent manner
same,binding of calstabin2 to PKA-phosphorylated RyR2,PKA-phosphorylated RyR2,"prevent dissociation of calstabin2 from PKA-phosphorylated RyR2, and/or enhance the (re)binding of calstabin2 to PKA-phosphorylated RyR2"
O=C1CN(/N=C/c2ccc(-c3ccc([N+](=O)[O-])cc3)o2)C(O)=N1 [Dantrolene],antisense oligomer-guided exon skipping,DMD exon skipping,potentiate
